The numbers were not newly measured in patent US8637323B2, “Fluorescent nitric oxide probes and associated methods” (Board of Regents, The University of Texas System, priority 2010, dated 2014), which cites them from elsewhere.

Each structure is given as a SMILES string.

For data set [1] the following is noted: calculated with published photophysical parameters.

On to `CC(=O)Oc1ccc2c(c1)Oc1cc(OC(C)=O)ccc1C21OC(=O)c2cc(N)c(N)cc21` [DAF-2 DA], for which the “NO concentration giving a fluorescence signal comparable to 1 mM DHA” value is listed as approximately 300 nM. The fluorescence enhancement entry in data set [1] was “ca. 200 fold”.
